The text below walks through data of ChEMBL document CHEMBL4373715, “Discovery and Biological Evaluations of Halogenated 2,4-Diphenyl Indeno[1,2-b]pyridinol Derivatives as Potent Topoisomerase IIα-Targeted Chemotherapeutic Agents for Breast Cancer” (J Med Chem, 2019).

In experiment [1] the test system is HCT-15. Nature of the experiment: Antiproliferative activity against human HCT15 cells measured after 72 hrs by EZ-Cytox assay. The class given is functional, cell-based. Conditions: HCT-15, 72 h.
The subject of experiment [2] is T47D. Nature of the experiment: Antiproliferative activity against human T47D cells measured after 72 hrs by EZ-Cytox assay. The class given is functional, cell-based.
Experiment [3] concerns DU-145. Briefly: Antiproliferative activity against human DU145 cells measured after 72 hrs by EZ-Cytox assay. The class given is functional, cell-based. Conditions: DU-145, 72 h.
The test system of experiment [4] is HeLa. Nature of the experiment: Antiproliferative activity against human HeLa cells measured after 72 hrs by EZ-Cytox assay. The experiment is classed as functional, cell-based.
Experiment [5] has as its target T1, DNA topoisomerase 1 (Homo sapiens) (UniProt P11387).
T1 sequence (whole entry): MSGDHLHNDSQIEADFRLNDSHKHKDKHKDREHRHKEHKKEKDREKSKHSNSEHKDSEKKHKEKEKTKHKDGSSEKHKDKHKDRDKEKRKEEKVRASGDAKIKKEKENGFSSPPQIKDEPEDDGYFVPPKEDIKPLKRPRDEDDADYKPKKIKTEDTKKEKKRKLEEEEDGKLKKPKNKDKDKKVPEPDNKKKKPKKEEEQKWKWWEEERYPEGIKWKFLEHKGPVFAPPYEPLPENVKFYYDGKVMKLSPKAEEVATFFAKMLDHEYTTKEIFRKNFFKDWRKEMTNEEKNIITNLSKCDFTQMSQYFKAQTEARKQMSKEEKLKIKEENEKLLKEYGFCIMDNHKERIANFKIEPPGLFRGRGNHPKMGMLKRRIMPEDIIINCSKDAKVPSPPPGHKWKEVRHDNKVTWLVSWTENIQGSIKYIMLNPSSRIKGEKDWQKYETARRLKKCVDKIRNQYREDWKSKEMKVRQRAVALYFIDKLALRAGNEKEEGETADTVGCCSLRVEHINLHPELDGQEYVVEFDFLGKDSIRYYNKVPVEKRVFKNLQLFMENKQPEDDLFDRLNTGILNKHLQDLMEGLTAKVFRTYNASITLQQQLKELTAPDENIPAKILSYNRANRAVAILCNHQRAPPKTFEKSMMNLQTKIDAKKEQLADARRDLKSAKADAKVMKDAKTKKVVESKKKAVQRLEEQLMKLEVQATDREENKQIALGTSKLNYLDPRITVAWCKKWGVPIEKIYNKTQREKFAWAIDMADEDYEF
Briefly: Inhibition of recombinant human topoisomerase 1-mediated relaxation of supercoiled pBR322 DNA at 100 uM measured after 30 mins by ethidium bromide staining based agarose gel electrophoresis relative to control.

For experiment [6], the target named is DNA topoisomerase 2-alpha (Homo sapiens) (UniProt P11388). Briefly: Inhibition of recombinant human topoisomerase 2alpha-mediated relaxation of supercoiled pBR322 DNA at 100 uM measured after 30 mins by ethidium bromide staining based agarose gel electrophoresis relative to control.
DNA topoisomerase 2-alpha (Homo sapiens), sequence (P11388 whole entry): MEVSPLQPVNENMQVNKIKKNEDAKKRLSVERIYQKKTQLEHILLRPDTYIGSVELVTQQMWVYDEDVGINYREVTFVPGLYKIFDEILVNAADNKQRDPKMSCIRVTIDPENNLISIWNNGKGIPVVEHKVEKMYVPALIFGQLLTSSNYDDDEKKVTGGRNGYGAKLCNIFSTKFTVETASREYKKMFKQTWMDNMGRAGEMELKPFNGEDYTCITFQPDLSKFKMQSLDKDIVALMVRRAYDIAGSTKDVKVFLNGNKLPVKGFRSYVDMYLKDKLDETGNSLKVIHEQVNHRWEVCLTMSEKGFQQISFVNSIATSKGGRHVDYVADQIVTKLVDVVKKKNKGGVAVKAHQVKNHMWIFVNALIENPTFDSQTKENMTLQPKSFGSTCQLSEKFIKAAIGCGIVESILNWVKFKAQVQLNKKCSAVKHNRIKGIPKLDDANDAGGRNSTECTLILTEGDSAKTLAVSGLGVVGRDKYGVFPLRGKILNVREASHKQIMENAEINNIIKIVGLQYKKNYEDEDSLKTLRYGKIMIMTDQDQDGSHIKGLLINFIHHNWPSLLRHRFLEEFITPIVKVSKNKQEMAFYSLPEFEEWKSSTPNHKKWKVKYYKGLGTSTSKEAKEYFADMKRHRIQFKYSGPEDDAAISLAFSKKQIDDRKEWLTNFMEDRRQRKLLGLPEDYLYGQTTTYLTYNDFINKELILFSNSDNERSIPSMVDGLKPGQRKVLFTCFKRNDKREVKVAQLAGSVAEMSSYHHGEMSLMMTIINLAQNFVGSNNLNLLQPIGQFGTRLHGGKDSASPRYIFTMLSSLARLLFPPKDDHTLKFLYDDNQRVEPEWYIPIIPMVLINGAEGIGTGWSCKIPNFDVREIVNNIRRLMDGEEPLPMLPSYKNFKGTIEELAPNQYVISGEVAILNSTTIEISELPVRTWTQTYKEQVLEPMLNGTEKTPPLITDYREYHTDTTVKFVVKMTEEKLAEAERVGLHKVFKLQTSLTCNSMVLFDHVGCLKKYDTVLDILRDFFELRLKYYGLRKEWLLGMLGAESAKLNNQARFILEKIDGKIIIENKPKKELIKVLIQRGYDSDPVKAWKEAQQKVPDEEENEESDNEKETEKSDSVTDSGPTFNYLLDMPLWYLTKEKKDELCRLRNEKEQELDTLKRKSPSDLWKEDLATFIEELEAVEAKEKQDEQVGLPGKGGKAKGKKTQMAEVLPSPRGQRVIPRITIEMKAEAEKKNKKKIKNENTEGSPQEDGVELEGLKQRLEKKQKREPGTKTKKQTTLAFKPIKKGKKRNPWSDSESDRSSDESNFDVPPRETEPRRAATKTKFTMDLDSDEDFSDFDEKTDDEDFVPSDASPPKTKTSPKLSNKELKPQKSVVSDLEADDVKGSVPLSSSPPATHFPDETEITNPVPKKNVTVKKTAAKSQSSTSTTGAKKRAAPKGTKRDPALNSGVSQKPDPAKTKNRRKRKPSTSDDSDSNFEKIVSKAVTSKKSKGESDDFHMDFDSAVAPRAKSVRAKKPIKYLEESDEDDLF

In general, IC50 refers to the concentration at which inhibition is half-maximal. A lower IC50 goes with greater potency in that assay. In general, inhibition refers to the share of the control response that was lost under treatment. As to `Oc1cccc(-c2cc(-c3ccc(F)cc3)nc3c2Cc2c(O)cccc2-3)c1`, the IC50 is 2.68 µM in experiment [1], 1.72 µM in experiment [2], 0.56 µM in experiment [3] and 6.71 µM in experiment [4]. Also, the inhibition in experiment [5] was found to be 26.2%; in experiment [6], 27.8%.

`Oc1ccc2c(c1)Cc1c(-c3ccccc3)cc(-c3ccccc3O)nc1-2`: the IC50 in experiment [1] was over 50 µM; in experiment [2], over 50 µM; in experiment [3], 1.62 µM; in experiment [4], over 50 µM. Besides, the inhibition in experiment [5] turned out to be 2%; in experiment [6], 19%.

Turning to `Oc1ccc(-c2cc(-c3ccccc3)nc3c2Cc2ccc(O)cc2-3)cc1`, the IC50 in experiment [1] was over 50 µM; in experiment [2] it was 2.99 µM; in experiment [3], 1.38 µM; in experiment [4] it was over 50 µM. The inhibition in experiment [5] was 6%; in experiment [6] it was 2.4%.

As to `Oc1ccc(-c2cc(-c3cccc(F)c3)nc3c2Cc2cc(O)ccc2-3)cc1`, the IC50 in experiment [1] was 3.57 µM; in experiment [2], 1.34 µM; in experiment [3] it was 1.44 µM; in experiment [4] it was 6.76 µM. Moreover, the inhibition in experiment [5] was 8.7%; in experiment [6] it was 4.5%.

In the case of `Oc1ccc(-c2cc(-c3ccc(Cl)cc3)nc3c2Cc2cccc(O)c2-3)cc1`, the IC50 in experiment [1] is over 50 µM; in experiment [2], over 50 µM; in experiment [3], 2.8 µM; in experiment [4] it was over 50 µM. In addition, the inhibition stood at 0.2% in experiment [5] and 26.2% in experiment [6].

For `Oc1cccc(-c2cc(-c3ccc(F)cc3)nc3c2Cc2cccc(O)c2-3)c1`, the IC50 in experiment [1] came to 4.04 µM; in experiment [2] it was 2.24 µM; in experiment [3], 3.3 µM; in experiment [4], 8.81 µM. In addition, the figures for the inhibition in experiment [5] and in experiment [6] were 2.3% and 27.3%, respectively.

With `Oc1ccc(-c2cc(-c3cccc(Cl)c3)nc3c2Cc2cccc(O)c2-3)cc1`, the IC50 in experiment [1] came out at 1.3 µM; in experiment [2], 0.83 µM; in experiment [3] it was 0.03 µM; in experiment [4], 6.23 µM. In addition, the results for the inhibition in experiment [5] and in experiment [6] were 0% and 24.4%, respectively.

As to `Oc1ccccc1-c1cc(-c2ccccc2F)nc2c1Cc1cccc(O)c1-2`, the IC50 in experiment [1] was found to be 3.76 µM; in experiment [2], 4.56 µM; in experiment [3], 9.9 µM; in experiment [4], 7.63 µM. Further, the inhibition in experiment [5] came out at 0%; in experiment [6] it was 0.6%.

On to `Oc1cccc(-c2cc(-c3ccccc3)c3c(n2)-c2cccc(O)c2C3)c1`, for which the IC50 was found to be 1.58 µM in experiment [1], 3.92 µM in experiment [2], 0.52 µM in experiment [3] and 6.2 µM in experiment [4]. Further, the figures for the inhibition in experiment [5] and in experiment [6] were 0.4% and 4.5%, respectively.

As for `Oc1ccc(-c2cc(-c3ccccc3)nc3c2Cc2cc(O)ccc2-3)cc1`, the IC50 in experiment [1] was over 50 µM; in experiment [2], 3.55 µM; in experiment [3], 2.48 µM; in experiment [4], 2.75 µM. The inhibition stood at 11.1% in experiment [5] and 2.5% in experiment [6].

`Oc1ccccc1-c1cc(-c2ccccc2)c2c(n1)-c1cccc(O)c1C2`: the IC50 in experiment [1] is over 50 µM; in experiment [2], 6.43 µM; in experiment [3] it was 2.49 µM; in experiment [4], 1.83 µM. Moreover, the inhibition in experiment [5] worked out at 6.6%; in experiment [6], 1.1%.

For the compound `Oc1ccc2c(c1)Cc1c(-c3ccccc3O)cc(-c3ccc(F)cc3)nc1-2`, the 50% inhibitory concentration (IC50) in experiment [1] came out at 4.61 µM; in experiment [2] it was 3.14 µM; in experiment [3], 4.76 µM; in experiment [4] it was 14.3 µM. The inhibition in experiment [5] worked out at 0%; in experiment [6], 6%.

With `Oc1ccc(-c2cc(-c3cccc(C(F)(F)F)c3)nc3c2Cc2cccc(O)c2-3)cc1`, the IC50 in experiment [1] stood at 4.77 µM; in experiment [2], 9.57 µM; in experiment [3], 44.1 µM; in experiment [4], 16.8 µM. For the same compound, the inhibition worked out at 2.3% in experiment [5] and 12.9% in experiment [6].
